PMC7397269, “Synthesis and Evaluation of New Coumarin Derivatives as Antioxidant, Antimicrobial, and Anti-Inflammatory Agents” (Molecules, 2020)
Values after ≈ are worked out from the molar mass of the structure shown.

Assays:
[1] = tested on: Pseudomonas aeruginosa ATCC 27,953; assay: Agar well diffusion, P. aeruginosa; type: cell-based; conditions: ATCC27, 100 μL of 10 mg/mL in DMSO, read-out: diameter of inhibition zone, PA
From the text: (§1) The new molecules were individually tested for their antimicrobial activity in vitro against standard bacteria strains from the American Type Culture Collection (ATCC), namely, Staphylococcus aureus ATCC 29213, Bacillus subtilis ATCC 6633, Bacillus megaterium ATCC 9885 (Gram-positive), Escherichia coli ATCC 2592, and Pseudomonas aeruginosa ATCC 27,953 (Gram-negative). The compounds were also microbiologically tested against locally isolated Saccharomyces cerevisiae (yeast) and the standard Agricultural Research Service Culture Collection (NRRL) strain of the yeast-like pathogenic fungus Candida albicans NRRL Y-477. Primary screening was conducted using the agar well diffusion method using nutrient agar (NA) medium and Sabourand dextrose agar (SDA) medium for the tested pathological bacteria and yeast, respectively. […].
(§2) Antimicrobial tests were conducted via the agar well diffusion method using 100 μL of suspension containing 1 × 10^8 CFU/mL pathological tested bacteria and 1 × 10^6 CFU/mL yeast spread on NA and SDA, respectively. After the media cooled and solidified, wells (10 mm in diameter) were made in the solidified agar and loaded with 100 μL of the tested compound solution prepared by dissolving 10 mg of the chemical compound in 1 mL dimethyl sulfoxide (DMSO). The inoculated plates were then incubated for 24 h at 37 °C for bacteria and yeast growth. DMSO served as negative control. Ciprofloxacin (10 mg/mL) and ketoconazole (10 mg/mL) were used as standards for antibacterial and antifungal activity, respectively. After incubation, antimicrobial activity was evaluated by measuring the zone of inhibition against the test organisms and compared with that of the standard. Antimicrobial activities were expressed as the diameter of the inhibition zone (IZ) in mm. The experiment was carried out in triplicate and the average zone of inhibition was calculated.

trypsin = assay: Proteinase-inhibitory activity; type: biochemical; conditions: 250 µg/mL; mean ± SD (n = 3)
Method: The newly synthesised compounds were individually tested for their in vitro anti-inflammatory activity against proteinase enzyme. […] This test was performed at the Pharmacology Department, Medical Research Division, National Research Centre, Cairo, Egypt. Furthermore, compounds 2–8 were evaluated for their COX1/COX2 inhibitory activities.
The test was performed according to El-Serwy et al. with minor modifications. The reaction mixture (2 mL) contained 0.06 mg trypsin, 20 mM Tris HCl buffer (pH 7.4), and 1 mL test sample (250 µg/mL for each compound). After incubating for 5 min, 1 mL of 0.8% (w/v) casein was added. The mixture was incubated for an additional 20 min. The reaction was arrested by adding 1 mL of 10% perchloric acid. The cloudy suspension was centrifuged, and the absorbance of the supernatant was read at 280 nm. Reference standard aspirin was used as the positive control. The experiment was performed in triplicate. The percent inhibition of protein denaturation was calculated using the following Equation (2):(2) % Inhibition=100−A control −A test/A control×100 where Acontrol and Atest represent the absorbance of the control reaction without and with the sample, respectively.

[2] = tested on: Bacillus subtilis ATCC 6633; assay: MIC, two-fold serial dilution, B. subtilis; type: cell-based; conditions: ATCC6633, read-out: Minimum inhibitory concentration, BS
From the text: as §1
(§3) The bacteriostatic activity of the active compounds (having IZ > 16 mm) was then evaluated using the two-fold serial dilution technique. Two-fold serial dilutions of the tested compounds solutions were prepared using the proper nutrient broth to reach final concentrations of 1000, 500, 250, and 125 μg/mL. The tubes were then inoculated with the test microorganisms grown in their suitable broth at 37 °C for 24 h (1 × 10^8 CFU/mL for bacteria and 1 × 10^6 CFU/mL of yeast), 0.1 mL of the above inoculum was administered per 5 mL, and the tubes were incubated at 37 °C for 24 h. The lowest concentration showing no growth was taken as the MIC.

[3] = tested on: Bacillus megaterium ATCC 9885; assay: MIC, two-fold serial dilution, B. megaterium; type: cell-based; conditions: Priestia megaterium, ATCC9885, read-out: Minimum inhibitory concentration, BM
From the text: as §1, §3

[4] = DPPH antioxidant assay (radical scavenging); type: biochemical; conditions: mean ± SD (n = 3)
Method: The antioxidant effects of the synthesised compounds were assessed using the 2,2-diphenyl-1-picrylhydrazyl (DPPH) antioxidant assay. Table 1 summarises the antioxidant effects of the test samples and ascorbic acid except for compound 5b because it was produced in poor yield.
The radical scavenging activity of the synthesised compounds was measured using the DPPH microplate-based method. The absorbance was measured using a microplate/cuvette reader (Spectramax M5, Molecular Devices, San Jose, CA, USA). Reference standard ascorbic acid was utilised as the positive control for this assay. Test samples were prepared at a starting concentration of 200 μg/mL after mixing with 100 μL of 0.2 mM DPPH methanolic solution. […] Samples were incubated with DPPH in the dark for 30 min at room temperature (25 °C). The methanolic DPPH solution was prepared daily and stored in a flask covered with aluminium foil. DPPH radicals have an absorption maximum (λmax) at 515 nm, at which the absorbance values were measured and converted into a percentage of antioxidant activity.
The methanolic DPPH solution without antioxidants was used as a control, and samples in methanol alone served as a background control. IC50 was determined using GraphPad Prism 7 (GraphPad Software Inc., San Diego, CA, USA). The percent inhibition was calculated using the following Equation (1):(1) % Inhibition=100−Sample Absorbance −Sample background Absorbance/DPPH only Absorbance×100
The assay was carried out in triplicate and performed as much as possible in an area protected against light. The data points are presented as the mean ± standard deviation (SD, n = 3).

[5] = tested on: Escherichia coli ATCC 2592; assay: Agar well diffusion, E. coli; type: cell-based; conditions: ATCC2592, 100 μL of 10 mg/mL in DMSO, read-out: diameter of inhibition zone, EC
From the text: as §1, §2

[6] = tested on: Staphylococcus aureus ATCC 29213; assay: Agar well diffusion, S. aureus; type: cell-based; conditions: ATCC29213, 100 μL of 10 mg/mL in DMSO, read-out: diameter of inhibition zone, SA
From the text: as §1, §2

[7] = tested on: Candida albicans NRRL Y-477; assay: Agar well diffusion, C. albicans; type: cell-based; conditions: NRRLY477, 100 μL of 10 mg/mL in DMSO, read-out: diameter of inhibition zone, CA
From the text: as §1, §2

[8] = tested on: Saccharomyces cerevisiae local isolate; assay: Agar well diffusion, S. cerevisiae; type: cell-based; conditions: well diffusion, 100 μL of 10 mg/mL in DMSO, S. cerevisiae, read-out: diameter of inhibition zone, SC
From the text: as §1, §2

[9] = tested on: Bacillus megaterium ATCC 9885; assay: Agar well diffusion, B. megaterium; type: cell-based; conditions: Priestia megaterium, ATCC9885, 100 μL of 10 mg/mL in DMSO, read-out: diameter of inhibition zone, BM
From the text: as §1, §2

[10] = tested on: Bacillus subtilis ATCC 6633; assay: Agar well diffusion, B. subtilis; type: cell-based; conditions: ATCC6633, 100 μL of 10 mg/mL in DMSO, read-out: diameter of inhibition zone, BS
From the text: as §1, §2

[11] = tested on: Saccharomyces cerevisiae local isolate; assay: MIC, two-fold serial dilution, S. cerevisiae; type: cell-based; conditions: two-fold serial dilution, S. cerevisiae, read-out: Minimum inhibitory concentration, SC
From the text: as §1, §3

[12] = tested on: Pseudomonas aeruginosa ATCC 27,953; assay: MIC, two-fold serial dilution, P. aeruginosa; type: cell-based; conditions: ATCC27, read-out: Minimum inhibitory concentration, PA
From the text: as §1, §3

[13] = tested on: Staphylococcus aureus ATCC 29213; assay: MIC, two-fold serial dilution, S. aureus; type: cell-based; conditions: ATCC29213, read-out: Minimum inhibitory concentration, SA
From the text: as §1, §3

[14] = tested on: Escherichia coli ATCC 2592; assay: MIC, two-fold serial dilution, E. coli; type: cell-based; conditions: ATCC2592, read-out: Minimum inhibitory concentration, EC
From the text: as §1, §3

[15] = tested on: Candida albicans NRRL Y-477; assay: MIC, two-fold serial dilution, C. albicans; type: cell-based; conditions: NRRLY477, read-out: Minimum inhibitory concentration, CA
From the text: as §1, §3

SMILES | zone of inhibition at 10000 µg/mL [1] [mm] | % Inhibition (proteinase) (trypsin) [%] | MIC [2] [µg/mL] | MIC [3] [µg/mL] | IC50 [4] | zone of inhibition at 10000 µg/mL [5] [mm] | zone of inhibition at 10000 µg/mL [6] [mm] | zone of inhibition at 10000 µg/mL [7] [mm] | zone of inhibition at 10000 µg/mL [8] [mm] | zone of inhibition at 10000 µg/mL [9] [mm] | zone of inhibition at 10000 µg/mL [10] [mm] | melting point [°C] | MIC [11] [µg/mL] | MIC [12] [µg/mL] | MIC [13] [µg/mL] | MIC [14] [µg/mL] | MIC [15] [µg/mL]
O=C(/C=C/c1ccc([N+](=O)[O-])cc1)c1ccc(NS(=O)(=O)c2c(O)c3cc(Cl)ccc3oc2=O)cc1 [9a, (E)-6-Chloro-4-hydroxy-N-(4-(3-(4-nitrophenyl)acryloyl)phenyl)-2-oxo-2H-chromene-3-sulfonamide] | < 15 | 62.14 ± 4.87 | 1000 (≈ 1900 µM) | 1000 (≈ 1900 µM) | — ((—): inactive (IC50 > 200 μg/mL)) | < 15 | 16 | < 15 | < 15 | 18 | 18 | 205 to 207 |  |  |  |  | 
Cc1ccc2oc(=O)c(S(=O)(=O)Nc3ccc(C(=O)/C=C/c4ccc([N+](=O)[O-])cc4)cc3)c(O)c2c1 [9b, (E)-4-Hydroxy-6-methyl-N-(4-(3-(4-nitrophenyl)acryloyl)phenyl)-2-oxo-2H-chromene-3-sulfonamide] | 26 |  | 500 (≈ 987 µM) | 500 (≈ 987 µM) | — ((—): inactive (IC50 > 200 μg/mL)) | 26 | 22 | 23 | 25 | 25 | 24 | 220 | 500 (≈ 987 µM) | 250 (≈ 494 µM) | 500 (≈ 987 µM) | 250 (≈ 494 µM) | 500 (≈ 987 µM)
COc1ccc(/C=C/C(=O)c2ccc(NS(=O)(=O)c3c(O)c4cc(Cl)ccc4oc3=O)cc2)cc1 [9e, (E)-6-Chloro-4-hydroxy-N-(4-(3-(4-methoxyphenyl)acryloyl)phenyl)-2-oxo-2H-chromene-3-sulfonamide] | 21 | 22.83 ± 4.88 | 500 (≈ 977 µM) | 500 (≈ 977 µM) | — ((—): inactive (IC50 > 200 μg/mL)) | 21 | 23 | 23 | 29 | 20 | 21 | > 300 | 250 (≈ 488 µM) | 500 (≈ 977 µM) | 500 (≈ 977 µM) | 500 (≈ 977 µM) | 500 (≈ 977 µM)
COc1ccc(/C=C/C(=O)c2ccc(NS(=O)(=O)c3c(O)c4cc(C)ccc4oc3=O)cc2)cc1 [9f, (E)-4-Hydroxy-N-(4-(3-(4-methoxyphenyl)acryloyl)phenyl)-6-methyl-2-oxo-2H-chromene-3-sulfonamide] | 28 | 21.7 ± 7.6 | 500 (≈ 1020 µM) | 250 (≈ 509 µM) | — ((—): inactive (IC50 > 200 μg/mL)) | 26 | 25 | 24 | 26 | 26 | 25 | > 300 | 500 (≈ 1020 µM) | 250 (≈ 509 µM) | 500 (≈ 1020 µM) | 250 (≈ 509 µM) | 500 (≈ 1020 µM)
O=C(O)c1cn(C2CC2)c2cc(N3CCNCC3)c(F)cc2c1=O [Ciprofloxacin, reference compound] | 30 |  | 125 (≈ 377 µM) | 125 (≈ 377 µM) |  | 30 | 28 | < 15 | < 15 | 30 | 30 |  |  | 125 (≈ 377 µM) | 125 (≈ 377 µM) | 125 (≈ 377 µM) | 
